Experimental data taken from patent US9233927B2 (TEVA PHARMACEUTICAL INDUSTRIES, LTD., priority 2013, dated 2016).
Where two headings read alike, the source gives them in different places. Each block holds one compound with its values, some of them ahead of it.

How the values were obtained:
[1] = Particle size distribution by Malvern laser diffraction (Mastersizer S); type: physicochemical; details: for D(0.9), PSD by Malvern / d(0.1), PSD by Malvern / d(0.5), PSD by Malvern: Modified Pilot Scale, 2.5 kg batch
Procedure: The particle size distributions were measured by Malvern Laser Diffraction, using the Mastersizer S model. Laser diffraction relies on the fact that diffraction angle of light is inversely proportional to particle size. Properties of particles are measured and interpreted as measurements of a sphere (a sphere being the only shape that can be described by one unique number). In addition, laser diffraction calculates a particle size distribution based around volume terms, thus eliminating particle count from the determination of particle size. The Mastersizer S model measures particles using a single technique and a single range setting.
D(0.1) is the particle size, in microns, below which 10% by volume distribution of the population is found. D(0.5) is the particle size, in microns, below which 50% by volume distribution of the population is found. D(0.9) is the particle size, in microns, below which 90% by volume distribution of the population is found.

[2] = prior art U.S. Pat. No. 7,884,208; cited from earlier work
[3] = prior art U.S. Pat. No. 7,884,208, cited from earlier work
[4] = test system: acute experimental autoimmune encephalomyelitis (aEAE) model; details: U.S. Pat. No. 6,077,851; cited from earlier work
[5] = Production scale crystallization
[6] = Laboratory scale crystallization, 25 g crude
[7] = starting material of pilot scale process

PSD D(0.1) [1, 6]: 2.6 μm
SMILES: CCN(C(=O)c1c([O-])c2c(Cl)cccc2n(C)c1=O)c1ccccc1.[Na+] [Laboratory Scale Batch B]

D(0.9), PSD by Malvern [1]: 33.8 um
d(0.1), PSD by Malvern [1]: 3.3 um
d(0.5), PSD by Malvern [1]: 12.9 um
SMILES: CCN(C(=O)c1c([O-])c2c(Cl)cccc2n(C)c1=O)c1ccccc1.[Na+] [Pilot Scale Batch A]

D(0.9), PSD by Malvern [1]: 33.9 um
d(0.1), PSD by Malvern [1]: 4.1 um
d(0.5), PSD by Malvern [1]: 13.5 um
SMILES: CCN(C(=O)c1c([O-])c2c(Cl)cccc2n(C)c1=O)c1ccccc1.[Na+] [Pilot Scale Batch B]

d(0.1) [1, 7]: 1-2 μ
d(0.5) [1, 7]: 5-11 μ
d(0.9) [1, 7]: 20-35 μ
SMILES: CCN(C(=O)c1c([O-])c2c(Cl)cccc2n(C)c1=O)c1ccccc1.[Na+] [crude laquinimod sodium]

More lines, now with the values behind:

SMILES: CCN(C(=O)c1c([O-])c2c(Cl)cccc2n(C)c1=O)c1ccccc1.[Na+] [Batch C]
PSD D(0.1) [1, 5]: 4.1 μm
PSD D(0.5) [1, 5]: 14.0 μm
PSD D(0.9) [1, 5]: 32.0 μm

SMILES: CCN(C(=O)c1c([O-])c2c(Cl)cccc2n(C)c1=O)c1ccccc1.[Na+] [Batch E]
PSD D(0.1) [1, 5]: 2.5 μm
PSD D(0.5) [1, 5]: 9.5 μm
PSD D(0.9) [1, 5]: 21.0 μm

SMILES: CCN(C(=O)c1c([O-])c2c(Cl)cccc2n(C)c1=O)c1ccccc1.[Na+] [Example 13 of U.S. Pat. No. 7,884,208]
Tapped Density (in words) [2]: high

SMILES: CCN(C(=O)c1c([O-])c2c(Cl)cccc2n(C)c1=O)c1ccccc1.[Na+] [Example 14 of U.S. Pat. No. 7,884,208]
size of 10% or more of the total amount by volume of the particles [3]: less than 5 microns
Tapped Density (in words) [2]: undesired

SMILES: CCN(C(=O)c1c([O-])c2c(Cl)cccc2n(C)c1=O)c1ccccc1.[Na+] [Example 15 from U.S. Pat. No. 7,884,208]
D(0.9), PSD by Malvern ([3]; Laboratory Scale 25 g batch): 51.8 um
d(0.1), PSD by Malvern ([3]; Laboratory Scale 25 g batch): 6.1 um
d(0.5), PSD by Malvern ([3]; Laboratory Scale 25 g batch): 21.2 um

SMILES: CCN(C(=O)c1c([O-])c2c(Cl)cccc2n(C)c1=O)c1ccccc1.[Na+] [Laboratory Scale Batch A]
PSD D(0.1) [1, 6]: 2.3 μm

SMILES: CCN(C(=O)c1c(O)c2c(Cl)cccc2n(C)c1=O)c1ccccc1 [Laquinimod, N-ethyl-N-phenyl-1,2,-dihydro-4-hydroxy-5-chloro-1-methyl-2-oxoquinoline-3-carboxamide]
effectiveness in aEAE model [4]: effective
